Here are results for one molecule from BindingDB's records for doi:10.1016/j.bmc.2016.01.035 (Tohoku Pharmaceutical University, 2016).

This test in a line: Agonist activity at ERalpha in human MCF7 cells assessed as induction of cell proliferation incubated for 5 days by WST-8 assay.

The structures appear in SMILES notation.

As for `CC(=O)N1C(C)(C)CC(=C(c2ccc(O)cc2)c2ccc(O)cc2)CC1(C)C`, the EC50 amounted to 220 pM.
